Reference: publication PMC6855808, “Direct binding of phosphatidylglycerol at specific sites modulates desensitization of a ligand-gated ion channel” (eLife, 2019)
pEC50, pKd: −log10 of the molar value. “And” between values parts separate entries of the source, which are not always exact repeats. Equal values may be shown once.

Experiments:
[1] = system: ELIC WT; test: Native MS phospholipid binding to delipidated ELIC in C10E5; set-up: species or system Erwinia chrysanthemi
Procedure: (§1) Native MS analysis was similar to previous descriptions for other membrane proteins ([Gault et al., 2016]). For analysis of ELIC in DDM, 30 μl of purified protein in 0.02% DDM at ~1 mg/ml was buffer exchanged into 200 mM ammonium acetate pH 7.5% and 0.02% DDM using Biospin six gel filtration spin columns (Bio-Rad, Hercules, CA). 2 μl of buffer exchanged ELIC was loaded into a borosilicate capillary emitter (Thermo Scientific, Waltham, MA), and analyzed by static nanospray on a Thermo QExactive EMR mass spectrometer. The following parameters were used to resolve the ELIC pentamer and minimize dissociation into tetramer and monomer: capillary voltage of 1.2 kV, capillary temperature of 200°C, ion transfer optics set with the injection flatapole, inter-flatapole lens, bent flatapole, transfer multiple as 8, 7, 6, 4 V, respectively, resolution 8,750, AGC target 3 × 10^6, trap pressure set to maximum, CID 200 V, and CE 100 V. For analysis of ELIC in C10E5, ELIC delipidated by injecting 300 μg onto a Sephadex 200 10/300 column (GE Healthcare) at 0.5 ml/min pre-equilibrated with Buffer A, 10% glycerol, and 0.06% C10E5 (Anatrace). 30 μl aliquots were then buffer exchanged to 100 mM ammonium acetate pH 7.5, 0.06% C10E5 using Biospin six columns, and diluted to 0.2 mg/ml. MS measurements on the QExactive EMR were performed with the parameters listed above except: capillary temperature 100°C, CID 75 V and CE 200 V. For lipid binding measurements, stocks of POPG lipid were prepared at 2× the concentration of POPG being tested in 100 mM ammonium acetate pH 7.5% and 0.06% C10E5. Lipid stocks were then mixed with 0.4 mg/ml ELIC in a 1:1 vol ratio for a final concentration of 1 μM ELIC, and samples were analyzed after >5 min incubation.
(§2) MS spectra were deconvoluted using UniDec ([Marty et al., 2015]); deconvolution of spectra with bound lipid was restricted to the 26+ to 22+ charge states (Figure 1—figure supplement 3). Peak heights of apo and lipid-bound species were extracted from UniDec, and analyzed by two approaches. The average number of bound lipids was determined by the following relationship:(1) Averagenumberboundlipid=∑n=0kn\cdot In/∑n=0kIn where n is the number of bound lipids and In is the deconvoluted peak height of ELIC with n bound lipids. Peak heights of apo and lipid-bound species were also plotted as mole fraction versus the number of bound lipids (Figure 1—figure supplement 4).
(§3) Then, the probability (B) that q sites are occupied out of N total sites is given by the binomial probability function:(3) Bq=N!/q!N-q!p^N-q(1-p)^q
(§4) B(q) was used to determine the mole fraction of each lipid-bound species at a given [A], which was used to fit the native MS data in Excel across all [A] by setting K constant and varying N or vice versa.

[2] = target: T1, ELIC R117Q/R299Q (Dickeya chrysanthemi, UniProt P0C7B7, R117Q/R298Q); test: Native MS POPG binding, mutant; set-up: species or system Erwinia chrysanthemi; settings: binomial fit, N varied; 12 μM POPG
T1 construct: MBP (N, cleaved yes); made in house; host or cells: OverExpress C43 (DE3) E. coli
T1 sequence (P0C7B7 whole entry R117Q/R298Q): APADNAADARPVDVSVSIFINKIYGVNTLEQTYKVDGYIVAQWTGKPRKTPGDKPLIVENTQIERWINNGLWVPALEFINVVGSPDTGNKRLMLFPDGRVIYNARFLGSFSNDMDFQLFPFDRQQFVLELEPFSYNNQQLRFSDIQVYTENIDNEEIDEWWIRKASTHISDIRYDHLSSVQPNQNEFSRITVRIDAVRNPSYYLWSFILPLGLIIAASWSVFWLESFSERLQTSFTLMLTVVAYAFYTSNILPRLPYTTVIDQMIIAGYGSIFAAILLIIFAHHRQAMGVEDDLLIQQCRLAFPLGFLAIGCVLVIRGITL
Procedure: as §1, §2, §3, §4

[3] = target: T2, ELIC R123Q/R299Q (Dickeya chrysanthemi, UniProt P0C7B7, R123Q/R298Q); test: Native MS POPG binding, mutant; set-up: species or system Erwinia chrysanthemi; settings: binomial fit, N varied; 12 μM POPG
T2 construct: MBP (N, cleaved yes); made in house; host or cells: OverExpress C43 (DE3) E. coli
T2 sequence (P0C7B7 whole entry R123Q/R298Q): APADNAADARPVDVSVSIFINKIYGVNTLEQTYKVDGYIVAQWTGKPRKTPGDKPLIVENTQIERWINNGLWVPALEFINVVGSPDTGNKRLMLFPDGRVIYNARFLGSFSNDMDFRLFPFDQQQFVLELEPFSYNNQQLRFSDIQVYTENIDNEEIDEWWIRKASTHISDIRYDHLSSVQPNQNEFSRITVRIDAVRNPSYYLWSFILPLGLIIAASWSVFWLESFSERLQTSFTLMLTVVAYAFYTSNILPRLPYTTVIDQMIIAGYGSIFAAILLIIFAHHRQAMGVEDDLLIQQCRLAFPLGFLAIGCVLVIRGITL
Procedure: as §1, §2, §3, §4

[4] = target: T3, ELIC R286Q (Dickeya chrysanthemi, UniProt P0C7B7, R285Q); test: Native MS POPG binding, mutant; set-up: species or system Erwinia chrysanthemi; settings: binomial fit, N varied; 12 μM POPG
T3 construct: MBP (N, cleaved yes); made in house; host or cells: OverExpress C43 (DE3) E. coli
T3 sequence (P0C7B7 whole entry R285Q): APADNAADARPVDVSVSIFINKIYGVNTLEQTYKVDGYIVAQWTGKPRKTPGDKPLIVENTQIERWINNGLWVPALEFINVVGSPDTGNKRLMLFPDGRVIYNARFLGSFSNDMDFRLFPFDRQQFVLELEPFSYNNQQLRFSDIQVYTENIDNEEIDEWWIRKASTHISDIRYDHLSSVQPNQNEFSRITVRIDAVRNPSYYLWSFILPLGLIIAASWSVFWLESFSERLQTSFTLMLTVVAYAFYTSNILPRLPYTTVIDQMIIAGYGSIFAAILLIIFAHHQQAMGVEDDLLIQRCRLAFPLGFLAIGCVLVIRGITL
Procedure: as §1, §2, §3, §4

[5] = target: T4, ELIC R286Q/R299Q (Dickeya chrysanthemi, UniProt P0C7B7, R285Q/R298Q); test: Native MS POPG binding, mutant; set-up: species or system Erwinia chrysanthemi; settings: binomial fit, N varied; 12 μM POPG
T4 construct: MBP (N, cleaved yes); made in house; host or cells: OverExpress C43 (DE3) E. coli
T4 sequence (P0C7B7 whole entry R285Q/R298Q): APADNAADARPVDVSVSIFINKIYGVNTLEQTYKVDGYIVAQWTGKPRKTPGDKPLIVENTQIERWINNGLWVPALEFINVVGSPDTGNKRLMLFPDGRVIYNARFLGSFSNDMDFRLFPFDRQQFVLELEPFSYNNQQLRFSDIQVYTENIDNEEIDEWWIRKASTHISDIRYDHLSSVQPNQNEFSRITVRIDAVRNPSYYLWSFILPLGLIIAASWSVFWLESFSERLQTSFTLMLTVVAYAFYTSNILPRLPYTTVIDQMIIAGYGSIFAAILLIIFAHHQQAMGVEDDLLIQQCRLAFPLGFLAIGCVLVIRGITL
Procedure: as §1, §2, §3, §4

[6] = target: T5, ELIC R299Q (Dickeya chrysanthemi, UniProt P0C7B7, R298Q); test: Native MS POPG binding, mutant; set-up: species or system Erwinia chrysanthemi; settings: binomial fit, N varied; 12 μM POPG
T5 construct: MBP (N, cleaved yes); made in house; host or cells: OverExpress C43 (DE3) E. coli
T5 sequence (P0C7B7 whole entry R298Q): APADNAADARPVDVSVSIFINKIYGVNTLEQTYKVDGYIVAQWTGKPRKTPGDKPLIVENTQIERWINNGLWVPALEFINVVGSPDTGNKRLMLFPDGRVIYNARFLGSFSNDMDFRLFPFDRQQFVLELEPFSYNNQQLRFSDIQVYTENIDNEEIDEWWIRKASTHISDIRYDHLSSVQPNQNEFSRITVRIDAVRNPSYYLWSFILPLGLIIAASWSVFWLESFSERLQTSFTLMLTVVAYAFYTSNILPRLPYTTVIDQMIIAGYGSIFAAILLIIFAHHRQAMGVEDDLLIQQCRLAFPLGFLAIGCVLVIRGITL
Procedure: as §1, §2, §3, §4

[7] = target: T6, ELIC R301Q/R299Q (Dickeya chrysanthemi, UniProt P0C7B7, R298Q/R300Q); test: Native MS POPG binding, mutant; set-up: species or system Erwinia chrysanthemi; settings: binomial fit, N varied; 12 μM POPG
T6 construct: MBP (N, cleaved yes); made in house; host or cells: OverExpress C43 (DE3) E. coli
T6 sequence (P0C7B7 whole entry R298Q/R300Q): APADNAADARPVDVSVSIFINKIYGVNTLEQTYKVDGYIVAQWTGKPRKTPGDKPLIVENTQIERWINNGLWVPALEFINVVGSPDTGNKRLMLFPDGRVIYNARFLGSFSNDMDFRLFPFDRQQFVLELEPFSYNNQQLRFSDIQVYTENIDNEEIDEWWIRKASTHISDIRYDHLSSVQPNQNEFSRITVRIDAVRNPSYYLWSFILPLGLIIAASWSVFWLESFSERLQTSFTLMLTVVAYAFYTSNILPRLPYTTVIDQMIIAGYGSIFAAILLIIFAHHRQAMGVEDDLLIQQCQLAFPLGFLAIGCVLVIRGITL
Procedure: as §1, §2, §3, §4

[8] = target: T7, ELIC L238A (Dickeya chrysanthemi, UniProt P0C7B7, L237A); test: Native MS POPG binding, mutant; set-up: species or system Erwinia chrysanthemi; settings: 12 μM POPG
T7 construct: MBP (N, cleaved yes); made in house; host or cells: OverExpress C43 (DE3) E. coli
T7 sequence (P0C7B7 whole entry L237A): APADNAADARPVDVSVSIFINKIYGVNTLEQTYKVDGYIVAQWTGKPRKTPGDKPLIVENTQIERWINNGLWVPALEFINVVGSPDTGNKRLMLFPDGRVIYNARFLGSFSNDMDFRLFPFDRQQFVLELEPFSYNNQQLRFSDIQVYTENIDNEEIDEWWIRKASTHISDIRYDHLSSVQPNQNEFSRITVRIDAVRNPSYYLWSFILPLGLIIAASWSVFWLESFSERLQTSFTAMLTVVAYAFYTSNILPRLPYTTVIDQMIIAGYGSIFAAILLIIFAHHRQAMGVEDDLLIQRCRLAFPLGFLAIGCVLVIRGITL
Procedure: (§5) Native MS analysis was similar to previous descriptions for other membrane proteins ([Gault et al., 2016]). For analysis of ELIC in DDM, 30 μl of purified protein in 0.02% DDM at ~1 mg/ml was buffer exchanged into 200 mM ammonium acetate pH 7.5% and 0.02% DDM using Biospin six gel filtration spin columns (Bio-Rad, Hercules, CA). 2 μl of buffer exchanged ELIC was loaded into a borosilicate capillary emitter (Thermo Scientific, Waltham, MA), and analyzed by static nanospray on a Thermo QExactive EMR mass spectrometer. […] Lipid stocks were then mixed with 0.4 mg/ml ELIC in a 1:1 vol ratio for a final concentration of 1 μM ELIC, and samples were analyzed after >5 min incubation.
as §2, with “Peak heights of apo and lipid-bound species were also plotted as mole fraction versus the number of bound lipids (Figure 1—figure supplement 4).” left out

[9] = system: ELIC single mutants (R123Q, R286Q, R299Q); test: Native MS POPG binding, single arginine mutants as a group; set-up: species or system Erwinia chrysanthemi; settings: 12 μM POPG; not statistically significant
Procedure: as §5
as §2, with “Peak heights of apo and lipid-bound species were also plotted as mole fraction versus the number of bound lipids (Figure 1—figure supplement 4).” left out

[10] = system: ELIC double mutants (arginine mutants in combination with R299Q); test: Native MS POPG binding, double arginine mutants as a group; set-up: species or system Erwinia chrysanthemi
Procedure: as §1, with “MS measurements on the QExactive EMR were performed with the parameters listed above except: capillary temperature 100°C, CID 75 V and CE 200 V. For lipid binding measurements, stocks of POPG lipid were prepared at 2× the concentration of POPG being tested in 100 mM ammonium acetate pH 7.5% and 0.06% C10E5.” left out
as §2, with “Peak heights of apo and lipid-bound species were also plotted as mole fraction versus the number of bound lipids (Figure 1—figure supplement 4).” left out

[11] = system: ELIC WT; test: Thermal stability assay (SEC pentamer peak after heating); type: binding, Erwinia chrysanthemi
Procedure: Purified WT ELIC in C10E5 (Buffer A, 0.06% C10E5) was diluted to 1 μM in the absence or presence of various concentrations of phospholipid. Samples were analyzed without and with heating in the absence or presence of phospholipid. […] The stabilizing effect of a phospholipid was quantified as the pentamer amplitude in the presence of phospholipid (heated) divided by control (heated).

[12] = system: ELIC WT; test: Excised patch-clamp recordings from giant liposomes; settings: 30 mM cysteamine; for Desensitization norm current at 20 s: normalized to peak response

CCCCCCCC/C=C\CCCCCCCC(=O)OC(COC(=O)CCCCCCCCCCCCCCC)COP(=O)(O)OCC(O)CO (centres unmarked) [POPG, 1-palmitoyl-2-oleoyl-phosphatidylglycerol]
Average number of bound phospholipids per pentamer ([1]; 12 μM lipid, 1 μM ELIC): 2.9 | Maximum number of bound POPG per pentamer seen in native MS spectra ([1]; 12 μM lipid, 1 μM ELIC): up to nine | pKd ([1]; binomial binding model, 32 sites of equal affinity, 1 μM ELIC in C10E5, read-out: Dissociation constant K): 4.00 | Fold higher affinity than POPC ([1]; from binomial fits): ~2.8 × | Fold higher affinity than POPE ([1]; from binomial fits): ~ 1.9 × | N (# sites) [2]: 20 | N (# sites) [3]: 18 | N (# sites) [4]: 28 | N (# sites) [5]: 18 | N (# sites) [6]: 27 | N (# sites) [7]: 21 | Increase in average number of POPG bound compared to WT [8]: ~ 1.7 x | Decrease in average number of bound POPG compared to WT [9]: 13–18% | Decrease in bound phospholipid with each double mutant [10]: 35–45% | Decrease in average number of bound POPG relative to R299Q ([10]; 12 μM POPG): 27–32% | Decrease in average number of bound POPG relative to WT ([10]; 12 μM POPG): 38–41% | pEC50 ([11]; 1 μM ELIC in C10E5, 32°C for 15 min, read-out: EC50 of thermal stabilizing effect (concentration of POPG for 50% effect)): 4.28 | Fraction of thermal stabilizing effect yielded by 32 bound POPG ([11]; extrapolation relating POPG binding to thermal stability): ~ 82% and > 80% | Desensitization weighted τ ([12]; 12 mole% POPG giant liposomes): 0.93 ± 0.32 s | Activation τ ([12]; 12 mole% POPG): 112 ± 29 ms | Desensitization norm current at 20 s ([12]; 12 mole% POPG): 0.05 ± 0.02 | Activation τ ([12]; 25 mole% POPG): 134 ± 50 ms | Desensitization norm current at 20 s ([12]; 25 mole% POPG): 0.10 ± 0.04 | Desensitization weighted τ ([12]; 40 mole% POPG giant liposomes): 2.98 ± 0.24 s | Activation τ ([12]; 40 mole% POPG): 133 ± 66 ms | Desensitization norm current at 20 s ([12]; 40 mole% POPG): 0.21 ± 0.03
